Measurements as given in patent US20230201245A1, “COMPOSITIONS AND METHODS FOR TREATING VIRUS INFECTION” (CZ BIOHUB SF, LLC, priority 2020, published 2023).
“Also recorded” adds a separate entry of the source. Like-named read-outs stand apart in the source and are kept apart here.

What was measured:
[1] = test system: ZIKV NS5 and E; format: cell-based; conditions: added at 24 h, analyzed at 36 hpi; compared to CHX or Puro
[2] = test system: ZIKV RNA translation initiation; assay: Sucrose gradient polysome fractionation with qPCR of GAPDH mRNA and ZIKV plus-strand RNA; format: cell-based; conditions: then 30 nM RocA for 30 min
[3] = test system: PV; format: cell-based, PV-1 Mahoney
[4] = test system: ZIKV; assay: Quantification of (+)vRNA and viral particles by qPCR and plaque assays, ZIKV-infected cells; format: cell-based; conditions: added at 24 h, analyzed at 36 hpi
[5] = test system: ZIKV replication complexes; assay: In vitro replication assay with crude replication complexes and clickable uridine analog (5EU); format: biochemical; conditions: crude replication complexes from ZIKV-infected cells
[6] = test system: DENV; format: cell-based, DENV-2 strain 16681
[7] = test system: ZIKV; format: cell-based, ZIKV PRVABC59
[8] = test system: ebola, chikungunya, influenza and ZIKV; conditions: cited from earlier work

## COc1ccc([C@@]23Oc4cc(OC)cc(OC)c4[C@]2(O)[C@H](O)[C@H](C(=O)N(C)C)[C@H]3c2ccccc2)cc1 [RocA, Rocaglamide A]
[1]
  accumulation of NS5 or E: mild inhibitory effect
[2]; ZIKV-infected cells 24 h
  distribution of ZIKV plus-strand RNA in gradient fractions: shift of ZIKV RNA to lighter fractions
[2]; mock or ZIKV-infected cells 24 h
  distribution of GAPDH mRNA in gradient fractions: did not affect
[3]
  virus production (PV): only minor effects; also recorded: not PV
[4]
  accumulation of viral RNA or particles: reduced viral replication
[5]
  ZIKV replication in vitro (5EU labelling of newly synthesized RNA): reduced
[6]
  virus production (DENV): strongly reduced; also recorded: blocks viral replication; also recorded: drastic dose-dependent decrease
[7]
  virus production (ZIKV): strongly reduced; also recorded: blocks viral replication; also recorded: drastic dose-dependent decrease

## CCOC(=O)c1ccc(-c2ncc(C(=O)OCC)s2)nc1 [PythiDC, Diethyl-pythiDC]
[6]
  virus production (DENV): inhibit virus replication
[7]
  virus production (ZIKV): inhibit virus replication

## CC(/C=C/C(C)=C/[C@@H]1Cc2nc(cs2)[C@@H](C)C[C@@H](N)CC(=O)O[C@@H](C)C/C(C)=C/C=C\C(=O)O1)=C\CN(C)C [pateamine A]
[8]
  antiviral activity: antiviral activity

## C[C@@H]1C[C@@H]([C@H](O)CC2CC(=O)NC(=O)C2)C(=O)[C@@H](C)C1 [CHX, cycloheximide]
[4]
  accumulation of viral RNA or particles: reduced viral replication

## C[C@@]1(O)[C@H](O)[C@@H](CO)O[C@H]1n1cnc2c(N)ncnc21 [2′CMA]
[5]
  ZIKV replication in vitro (5EU labelling of newly synthesized RNA): reduced

## COC(=O)[C@H]1[C@@H](O)[C@@]2(O)c3c(OC)cc(O[C@@H]4O[C@@H]([C@H](O)CO)CO[C@H]4OC)cc3O[C@@]2(c2ccc(OC)cc2)[C@@H]1c1ccccc1 [silvestrol]
[8]; against ebola, chikungunya, influenza and ZIKV, literature references
  antiviral activity: antiviral activity
